Test results reported in patent US9453026B2, “ACC inhibitors and uses thereof” (Gilead Apollo, Inc., priority 2011, dated 2016).
Like-named read-outs stand apart in the source and are kept apart here.

What was measured:
[1] = molecular target: ACC1 (Homo sapiens, UniProt Q13085); assay: In vitro ACC1 inhibition assay (ADP-Glo); type: biochemical
In short: (§1)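 Enzyme (human ACC1 or ACC2) and compound, serially diluted 1:3 over 11 points from a 600 uM DMSO stock, were preincubated 15 min before substrate addition.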

[2] = molecular target: ACC2 (Homo sapiens, UniProt O00763); assay: In vitro ACC2 inhibition assay (ADP-Glo); type: biochemical
In short: as §1

Sequence of ACC2 (O00763 whole entry, species assumed): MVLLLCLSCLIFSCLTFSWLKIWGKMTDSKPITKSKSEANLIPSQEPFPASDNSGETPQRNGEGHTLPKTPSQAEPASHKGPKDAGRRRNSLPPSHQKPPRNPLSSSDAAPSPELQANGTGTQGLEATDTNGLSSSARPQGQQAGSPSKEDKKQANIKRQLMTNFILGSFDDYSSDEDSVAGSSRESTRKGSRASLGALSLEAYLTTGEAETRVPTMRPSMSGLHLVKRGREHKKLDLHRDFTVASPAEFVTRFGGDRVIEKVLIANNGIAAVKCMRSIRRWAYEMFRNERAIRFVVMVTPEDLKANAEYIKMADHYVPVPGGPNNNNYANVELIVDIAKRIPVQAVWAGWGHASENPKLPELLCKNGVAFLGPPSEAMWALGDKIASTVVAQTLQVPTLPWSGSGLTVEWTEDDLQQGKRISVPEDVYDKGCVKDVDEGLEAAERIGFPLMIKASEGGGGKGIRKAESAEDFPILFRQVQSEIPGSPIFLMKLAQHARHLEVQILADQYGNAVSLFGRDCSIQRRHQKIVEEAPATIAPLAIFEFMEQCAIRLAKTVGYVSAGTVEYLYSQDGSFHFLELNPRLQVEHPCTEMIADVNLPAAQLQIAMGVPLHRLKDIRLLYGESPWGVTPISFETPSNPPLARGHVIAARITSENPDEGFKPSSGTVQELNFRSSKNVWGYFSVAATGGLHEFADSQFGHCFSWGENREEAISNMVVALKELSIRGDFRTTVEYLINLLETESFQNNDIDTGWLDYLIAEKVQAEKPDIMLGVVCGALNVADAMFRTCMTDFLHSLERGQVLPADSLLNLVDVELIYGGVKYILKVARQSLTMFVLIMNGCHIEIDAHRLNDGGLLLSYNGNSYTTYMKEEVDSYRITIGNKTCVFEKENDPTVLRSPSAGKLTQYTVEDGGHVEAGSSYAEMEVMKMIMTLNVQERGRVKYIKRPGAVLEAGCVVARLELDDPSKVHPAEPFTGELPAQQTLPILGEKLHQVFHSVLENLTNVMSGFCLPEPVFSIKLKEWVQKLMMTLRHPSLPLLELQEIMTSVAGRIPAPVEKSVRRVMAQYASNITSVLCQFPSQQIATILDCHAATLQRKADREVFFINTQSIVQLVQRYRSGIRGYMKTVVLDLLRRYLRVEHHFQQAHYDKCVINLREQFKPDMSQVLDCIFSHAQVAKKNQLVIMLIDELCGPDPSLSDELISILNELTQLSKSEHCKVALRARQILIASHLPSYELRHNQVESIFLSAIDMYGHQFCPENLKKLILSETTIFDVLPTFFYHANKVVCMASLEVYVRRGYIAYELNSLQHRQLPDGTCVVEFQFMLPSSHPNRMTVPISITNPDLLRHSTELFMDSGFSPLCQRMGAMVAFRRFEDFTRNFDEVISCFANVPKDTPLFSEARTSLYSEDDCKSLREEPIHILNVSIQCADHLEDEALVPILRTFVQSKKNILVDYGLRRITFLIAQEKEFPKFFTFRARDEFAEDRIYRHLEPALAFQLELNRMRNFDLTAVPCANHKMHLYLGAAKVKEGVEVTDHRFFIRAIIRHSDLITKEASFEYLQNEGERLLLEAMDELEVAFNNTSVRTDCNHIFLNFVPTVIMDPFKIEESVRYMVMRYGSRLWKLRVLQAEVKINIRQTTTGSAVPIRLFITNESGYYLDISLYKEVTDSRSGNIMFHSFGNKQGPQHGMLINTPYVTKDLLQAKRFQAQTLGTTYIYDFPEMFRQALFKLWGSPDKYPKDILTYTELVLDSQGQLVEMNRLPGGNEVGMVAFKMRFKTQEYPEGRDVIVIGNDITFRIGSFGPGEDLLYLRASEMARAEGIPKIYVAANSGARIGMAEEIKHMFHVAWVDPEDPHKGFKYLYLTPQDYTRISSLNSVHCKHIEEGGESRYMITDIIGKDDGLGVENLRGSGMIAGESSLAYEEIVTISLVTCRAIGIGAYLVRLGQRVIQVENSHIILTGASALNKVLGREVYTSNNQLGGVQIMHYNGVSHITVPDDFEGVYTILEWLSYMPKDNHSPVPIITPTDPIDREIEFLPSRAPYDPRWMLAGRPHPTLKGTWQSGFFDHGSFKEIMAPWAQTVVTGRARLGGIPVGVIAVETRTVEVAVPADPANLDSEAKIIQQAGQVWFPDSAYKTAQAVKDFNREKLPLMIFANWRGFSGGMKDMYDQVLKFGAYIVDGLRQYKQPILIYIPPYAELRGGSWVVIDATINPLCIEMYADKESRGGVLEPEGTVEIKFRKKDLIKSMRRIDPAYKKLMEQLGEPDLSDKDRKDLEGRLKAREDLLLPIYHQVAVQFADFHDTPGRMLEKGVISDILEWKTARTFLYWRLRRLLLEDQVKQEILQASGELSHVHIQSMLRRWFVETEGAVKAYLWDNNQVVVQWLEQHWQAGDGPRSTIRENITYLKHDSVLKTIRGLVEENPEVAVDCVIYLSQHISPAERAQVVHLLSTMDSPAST

Row | Structure (SMILES) | IC50 ([1]; read-out: ACC1) [nM] | IC50 ([2]; read-out: ACC2) [nM] | IC50 [1] [nM] | IC50 [2] [nM]
1 | CCOc1ccccc1[C@H](Cn1c(=O)n(C(C)(C)C(=O)O)c(=O)c2c(C)c(-c3ncco3)sc21)OC(C)C [I-177, 2-[1-[(2R)-2-(2-ethoxyphenyl)-2-(propan-2-yloxy)ethyl]-5-methyl-6-(1,3-oxazol-2-yl)-2,4-dioxo-1H,2H,3H,4H-thieno[2,3-d]pyrimidin-3-yl]-2-methylpropanoic acid] | < 100 | < 100 |  | 
2 | Cc1c(-c2ncco2)sc2c1c(=O)n(C(C)(C)C(=O)O)c(=O)n2C[C@H](OC[C@@H](C)O)c1ccccc1 [I-179, 2-[1-[(2R)-2-[(2R)-2-hydroxypropoxy]-2-phenylethyl]-5-methyl-6-(1,3-oxazol-2-yl)-2,4-dioxo-1H,2H,3H,4H-thieno[2,3-d]pyrimidin-3-yl]-2-methylpropanoic acid] | < 100 | < 100 |  | 
3 | CCOC(=O)c1sc2c(c1C)c(=O)n(CC(=O)O)c(=O)n2CC(OC(C)C)c1ccccc1 (centres unmarked) [I-89, 2-[6-(ethoxycarbonyl)-5-methyl-2,4-dioxo-1-[2-phenyl-2-(propan-2-yloxy)ethyl]-1H,2H,3H,4H-thieno[2,3-d]pyrimidin-3-yl]acetic acid] | < 1000 | < 1000 |  | 
4 | Cc1c(-c2ncco2)sc2c1c(=O)n(C(C)(C)C(=O)O)c(=O)n2C[C@H](O[C@H]1CC[C@H](O)CC1)c1ccccc1OC(C)C [I-294, 2-(1-((R)-2-(((1r,4R)-4-hydroxycyclohexyl)oxy)-2-(2-isopropoxyphenyl)ethyl)-5-methyl-6-(oxazol-2-yl)-2,4-dioxo-1,2-dihydrothieno[2,3-d]pyrimidin-3(4H)-yl)-2-methylpropanoic acid] | < 100 | < 100 |  | 
5 | CCOC(=O)c1sc2c(c1C)c(=O)n(C(C)(C)C(=O)O)c(=O)n2C[C@H](OC)c1ccccc1 [I-110, 2-[6-(ethoxycarbonyl)-1-[(2R)-2-methoxy-2-phenylethyl]-5-methyl-2,4-dioxo-1H,2H,3H,4H-thieno[2,3-d]pyrimidin-3-yl]-2-methylpropanoic acid] | < 1000 | < 1000 |  | 
6 | Cc1c(-c2ncco2)sc2c1c(=O)n(C(C)(C)C(=O)O)c(=O)n2C[C@H](OC(C)C)c1ccccc1OC(F)F [I-267, 2-[1-[(2R)-2-[2-(difluoromethoxy)phenyl]-2-(propan-2-yloxy)ethyl]-5-methyl-6-(1,3-oxazol-2-yl)-2,4-dioxo-1H,2H,3H,4H-thieno[2,3-d]pyrimidin-3-yl]-2-methylpropanoic acid] | < 100 | < 100 |  | 
7 | CCO[C@@H](Cn1c(=O)n(C(C)(C)C(=O)O)c(=O)c2c(C)c(-c3ncco3)sc21)c1ccccc1OC [I-243, 2-[1-[(2R)-2-ethoxy-2-(2-methoxyphenyl)ethyl]-5-methyl-6-(1,3-oxazol-2-yl)-2,4-dioxo-1H,2H,3H,4H-thieno[2,3-d]pyrimidin-3-yl]-2-methylpropanoic acid] | < 100 | < 100 |  | 
8 | Cc1c(-c2ncco2)sc2c1c(=O)n(C(C)(C)C(=O)O)c(=O)n2C[C@H](OC1CCC(O)CC1)c1ccccc1 (stereo partly drawn) [I-164, 2-[1-[(2R)-2-[(4-hydroxycyclohexyl)oxy]-2-phenylethyl]-5-methyl-6-(1,3-oxazol-2-yl)-2,4-dioxo-1H,2H,3H,4H-thieno[2,3-d]pyrimidin-3-yl]-2-methylpropanoic acid] | < 100 | < 100 |  | 
9 | CCOC(=O)c1sc2c(c1C)c(=O)n(CC(N)=O)c(=O)n2C[C@H](OC(C)C)c1ccccc1 [I-112, ethyl 3-(carbamoylmethyl)-5-methyl-2,4-dioxo-1-[(2R)-2-phenyl-2-(propan-2-yloxy)ethyl]-1H,2H,3H,4H-thieno[2,3-d]pyrimidine-6-carboxylate] | < 100 | < 1000 |  | 
10 | CCOC(=O)c1sc2c(c1C)c(=O)n(CC(=O)O)c(=O)n2CCc1c(F)cccc1F [I-33, 2-[1-[2-(2,6-difluorophenyl)ethyl]-6-(ethoxycarbonyl)-5-methyl-2,4-dioxo-1H,2H,3H,4H-thieno[2,3-d]pyrimidin-3-yl]acetic acid] | 5000 to 20000 | 5000 to 20000 |  | 
11 | Cc1c(-c2ncco2)sc2c1c(=O)n(C(C)(C)C(N)=O)c(=O)n2C[C@H](OC1CCOCC1)c1ccccc1OC(F)F [I-274, 2-[1-[(2R)-2-[2-(difluoromethoxy)phenyl]-2-(oxan-4-yloxy)ethyl]-5-methyl-6-(1,3-oxazol-2-yl)-2,4-dioxo-1H,2H,3H,4H-thieno[2,3-d]pyrimidin-3-yl]-2-methylpropanamide] | < 100 | < 100 |  | 
12 | CCOC(=O)c1sc2c(c1C)c(=O)n(CC(=O)O)c(=O)n2CC(OC(C)C)c1ccccc1 (stereo in doubt) [I-96, (S)-2-(6-(ethoxycarbonyl)-1-(2-isopropoxy-2-phenylethyl)-5-methyl-2,4-dioxo-1,2-dihydrothieno[2,3-d]pyrimidin-3(4H)-yl)acetic acid] | < 100 | 5000 to 20000 |  | 

More lines, now with the values ahead:

Row | IC50 ([1]; read-out: ACC1) [nM] | IC50 ([2]; read-out: ACC2) [nM] | IC50 [1] [nM] | IC50 [2] [nM] | Structure (SMILES)
13 | < 1000 | < 1000 |  |  | Cc1c(-c2ncco2)sc2c1c(=O)n(C(C)(C)C(N)=O)c(=O)n2C[C@H](OC(C)C)c1ccccc1 [I-121, 2-methyl-2-[5-methyl-6-(1,3-oxazol-2-yl)-2,4-dioxo-1-[(2R)-2-phenyl-2-(propan-2-yloxy)ethyl]-1H,2H,3H,4H-thieno[2,3-d]pyrimidin-3-yl]propanamide]
14 | < 1000 | < 1000 |  |  | CCOC(=O)c1sc2c(c1C)c(=O)n(C(C)(C)C(=O)O)c(=O)n2C[C@H](OC(C)CC)c1ccccc1 (stereo in doubt) [I-131, 2-[1-[(2R)-2-[(2R)-butan-2-yloxy]-2-phenylethyl]-6-(ethoxycarbonyl)-5-methyl-2,4-dioxo-1H,2H,3H,4H-thieno[2,3-d]pyrimidin-3-yl]-2-methylpropanoic acid]
15 | < 100 | < 100 |  |  | COc1ccccc1[C@H](Cn1c(=O)n(C(C)(C)C(=O)N2CC(O)C2)c(=O)c2c(C)c(-c3ncco3)sc21)OC(C)C [I-241, 3-[1-(3-hydroxyazetidin-1-yl)-2-methyl-1-oxopropan-2-yl]-1-[(2R)-2-(2-methoxyphenyl)-2-(propan-2-yloxy)ethyl]-5-methyl-6-(1,3-oxazol-2-yl)-1H,2H,3H,4H-thieno[2,3-d]pyrimidine-2,4-dione]
16 | < 100 | < 100 |  |  | COc1ccccc1[C@H](Cn1c(=O)n(C(C)(C)C(=O)O)c(=O)c2c(C)c(-c3ncco3)sc21)OC[C@@H](C)O [I-258, 2-[1-[(2R)-2-[(2R)-2-hydroxypropoxy]-2-(2-methoxyphenyl)ethyl]-5-methyl-6-(1,3-oxazol-2-yl)-2,4-dioxo-1H,2H,3H,4H-thieno[2,3-d]pyrimidin-3-yl]-2-methylpropanoic acid]
17 |  |  | < 100 | < 100 | [2H]C([2H])([2H])Oc1ccccc1[C@H](Cn1c(=O)n(C(C)(C)C(=O)O)c(=O)c2c(C)c(-c3ncco3)sc21)OC1CCOCC1 [I-271, 2-[1-[(2R)-2-[2-(d3)methoxyphenyl]-2-(oxan-4-yloxy)ethyl]-5-methyl-6-(1,3-oxazol-2-yl)-2,4-dioxo-1H,2H,3H,4H-thieno[2,3-d]pyrimidin-3-yl]-2-methylpropanoic acid]
18 | > 50000 | > 50000 |  |  | CCOC(=O)c1sc2c(c1C)c(=O)n(CCS(C)(=O)=O)c(=O)n2CCc1ccccc1 [I-52]
19 | < 100 | < 100 |  |  | Cc1c(-c2ncco2)sc2c1c(=O)n(C(C)(C)C(N)=O)c(=O)n2C[C@H](OC1CCOCC1)c1ccccc1OC(C)C [I-292, 2-methyl-2-[5-methyl-1-[(2R)-2-(oxan-4-yloxy)-2-[2-(propan-2-yloxy)phenyl]ethyl]-6-(1,3-oxazol-2-yl)-2,4-dioxo-1H,2H,3H,4H-thieno[2,3-d]pyrimidin-3-yl]propanamide]
20 | < 100 | < 100 |  |  | COc1ccccc1[C@H](Cn1c(=O)n(C(C)(C)C(=O)N2CCC2)c(=O)c2c(C)c(-c3ncco3)sc21)OC1CCOCC1 [I-247, 3-[1-(azetidin-1-yl)-2-methyl-1-oxopropan-2-yl]-1-[(2R)-2-(2-methoxyphenyl)-2-(oxan-4-yloxy)ethyl]-5-methyl-6-(1,3-oxazol-2-yl)-1H,2H,3H,4H-thieno[2,3-d]pyrimidine-2,4-dione]
21 | < 5000 | < 5000 |  |  | CCOC(=O)c1sc2c(c1C)c(=O)n(CC(=O)O)c(=O)n2CCc1ccccc1Cl [I-31, 2-[1-[2-(2-chlorophenyl)ethyl]-6-(ethoxycarbonyl)-5-methyl-2,4-dioxo-1H,2H,3H,4H-thieno[2,3-d]pyrimidin-3-yl]acetic acid]
22 | < 100 | < 100 |  |  | COc1ccccc1[C@H](Cn1c(=O)n(C(C)(C)C(N)=O)c(=O)c2c(C)c(-c3ncco3)sc21)O[C@H]1CC[C@@H](O)CC1 [I-279, 2-[1-[(2R)-2-[(4-hydroxycyclohexyl)oxy]-2-(2-methoxyphenyl)ethyl]-5-methyl-6-(1,3-oxazol-2-yl)-2,4-dioxo-1H,2H,3H,4H-thieno[2,3-d]pyrimidin-3-yl]-2-methylpropanamide]
23 | < 5000 | < 5000 |  |  | CCOC(=O)c1sc2c(c1C)c(=O)n(CCC(=O)O)c(=O)n2CCc1ccccc1 [I-46, 3-[6-(ethoxycarbonyl)-5-methyl-2,4-dioxo-1-(2-phenylethyl)-1H,2H,3H,4H-thieno[2,3-d]pyrimidin-3-yl]propanoic acid]
24 | < 100 | < 100 |  |  | COc1ccccc1[C@H](Cn1c(=O)n(CC(=O)O)c(=O)c2c(C)c(-c3ncco3)sc21)OC1CCOCC1 [I-286, 2-[1-[(2R)-2-(2-methoxyphenyl)-2-(oxan-4-yloxy)ethyl]-5-methyl-6-(1,3-oxazol-2-yl)-2,4-dioxo-1H,2H,3H,4H-thieno[2,3-d]pyrimidin-3-yl]acetic acid]
25 | < 100 | < 100 |  |  | CCc1ccccc1[C@H](Cn1c(=O)n(C(C)(C)C(=O)O)c(=O)c2c(C)c(-c3ncco3)sc21)O[C@H]1CC[C@@H](O)CC1 [I-245, 2-(1-((R)-2-(2-ethylphenyl)-2-(((1s,4S)-4-hydroxycyclohexyl)oxy)ethyl)-5-methyl-6-(oxazol-2-yl)-2,4-dioxo-1,2-dihydrothieno[2,3-d]pyrimidin-3(4H)-yl)-2-methylpropanoic acid]
